The values below come from ChEMBL document CHEMBL3991601, “The target landscape of clinical kinase drugs” (Science, 2017).

Activity calls are given as the source filed them.

The target in one test is T1, Ephrin type-A receptor 1 (Homo sapiens, UniProt P21709).
T1 sequence (P21709 whole entry): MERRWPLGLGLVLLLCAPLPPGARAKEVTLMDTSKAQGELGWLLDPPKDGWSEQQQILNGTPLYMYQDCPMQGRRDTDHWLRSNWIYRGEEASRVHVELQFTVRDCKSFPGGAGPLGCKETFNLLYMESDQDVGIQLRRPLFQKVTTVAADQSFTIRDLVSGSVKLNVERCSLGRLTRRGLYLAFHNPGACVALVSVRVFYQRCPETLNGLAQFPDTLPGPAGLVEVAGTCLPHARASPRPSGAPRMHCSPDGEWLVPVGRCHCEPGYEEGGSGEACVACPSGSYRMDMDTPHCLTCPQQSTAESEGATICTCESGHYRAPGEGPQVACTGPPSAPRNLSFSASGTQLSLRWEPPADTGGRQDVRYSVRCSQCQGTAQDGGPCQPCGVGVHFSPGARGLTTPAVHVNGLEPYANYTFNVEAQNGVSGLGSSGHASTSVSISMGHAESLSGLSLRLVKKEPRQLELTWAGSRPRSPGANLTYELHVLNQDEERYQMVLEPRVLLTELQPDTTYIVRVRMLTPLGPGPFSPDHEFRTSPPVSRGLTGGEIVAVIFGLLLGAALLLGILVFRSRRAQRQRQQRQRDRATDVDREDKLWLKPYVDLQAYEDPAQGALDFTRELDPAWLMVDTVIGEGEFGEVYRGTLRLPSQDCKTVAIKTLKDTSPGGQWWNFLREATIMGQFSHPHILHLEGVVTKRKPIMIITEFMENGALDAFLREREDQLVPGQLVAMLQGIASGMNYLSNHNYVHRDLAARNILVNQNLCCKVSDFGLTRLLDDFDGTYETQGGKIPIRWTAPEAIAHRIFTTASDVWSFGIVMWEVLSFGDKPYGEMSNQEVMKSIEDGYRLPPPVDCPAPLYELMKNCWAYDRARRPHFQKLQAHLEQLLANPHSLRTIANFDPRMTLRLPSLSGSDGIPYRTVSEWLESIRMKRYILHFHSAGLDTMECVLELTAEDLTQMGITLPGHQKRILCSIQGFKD

Test [1] concerns the target T2, Inhibitor of nuclear factor kappa-B kinase subunit epsilon (Homo sapiens, UniProt Q14164).
T2 sequence (Q14164 whole entry): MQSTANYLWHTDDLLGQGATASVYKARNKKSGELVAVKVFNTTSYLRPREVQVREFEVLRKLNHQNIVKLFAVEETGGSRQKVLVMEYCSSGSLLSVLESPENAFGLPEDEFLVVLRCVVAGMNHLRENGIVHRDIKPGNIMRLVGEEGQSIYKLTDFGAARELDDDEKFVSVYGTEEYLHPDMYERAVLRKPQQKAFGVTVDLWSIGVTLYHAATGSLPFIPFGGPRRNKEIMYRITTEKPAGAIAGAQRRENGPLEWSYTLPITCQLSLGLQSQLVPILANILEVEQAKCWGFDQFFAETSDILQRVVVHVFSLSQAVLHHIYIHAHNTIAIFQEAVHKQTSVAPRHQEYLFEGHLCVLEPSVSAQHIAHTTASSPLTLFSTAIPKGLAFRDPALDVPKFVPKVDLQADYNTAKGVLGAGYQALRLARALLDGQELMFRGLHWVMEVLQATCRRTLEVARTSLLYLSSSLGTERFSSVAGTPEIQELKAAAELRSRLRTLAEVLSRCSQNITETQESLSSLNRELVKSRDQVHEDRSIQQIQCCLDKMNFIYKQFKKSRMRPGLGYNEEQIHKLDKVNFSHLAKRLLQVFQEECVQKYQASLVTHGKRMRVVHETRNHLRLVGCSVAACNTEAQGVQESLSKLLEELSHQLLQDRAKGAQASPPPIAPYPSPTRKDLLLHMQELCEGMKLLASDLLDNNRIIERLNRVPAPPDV

Test [2] addresses Serine/threonine-protein kinase MRCK gamma (Homo sapiens, UniProt Q6DT37).
For test [3], the target named is T3, Thyroid hormone receptor-associated protein 3 (Homo sapiens, UniProt Q9Y2W1).
T3 sequence (Q9Y2W1 whole entry): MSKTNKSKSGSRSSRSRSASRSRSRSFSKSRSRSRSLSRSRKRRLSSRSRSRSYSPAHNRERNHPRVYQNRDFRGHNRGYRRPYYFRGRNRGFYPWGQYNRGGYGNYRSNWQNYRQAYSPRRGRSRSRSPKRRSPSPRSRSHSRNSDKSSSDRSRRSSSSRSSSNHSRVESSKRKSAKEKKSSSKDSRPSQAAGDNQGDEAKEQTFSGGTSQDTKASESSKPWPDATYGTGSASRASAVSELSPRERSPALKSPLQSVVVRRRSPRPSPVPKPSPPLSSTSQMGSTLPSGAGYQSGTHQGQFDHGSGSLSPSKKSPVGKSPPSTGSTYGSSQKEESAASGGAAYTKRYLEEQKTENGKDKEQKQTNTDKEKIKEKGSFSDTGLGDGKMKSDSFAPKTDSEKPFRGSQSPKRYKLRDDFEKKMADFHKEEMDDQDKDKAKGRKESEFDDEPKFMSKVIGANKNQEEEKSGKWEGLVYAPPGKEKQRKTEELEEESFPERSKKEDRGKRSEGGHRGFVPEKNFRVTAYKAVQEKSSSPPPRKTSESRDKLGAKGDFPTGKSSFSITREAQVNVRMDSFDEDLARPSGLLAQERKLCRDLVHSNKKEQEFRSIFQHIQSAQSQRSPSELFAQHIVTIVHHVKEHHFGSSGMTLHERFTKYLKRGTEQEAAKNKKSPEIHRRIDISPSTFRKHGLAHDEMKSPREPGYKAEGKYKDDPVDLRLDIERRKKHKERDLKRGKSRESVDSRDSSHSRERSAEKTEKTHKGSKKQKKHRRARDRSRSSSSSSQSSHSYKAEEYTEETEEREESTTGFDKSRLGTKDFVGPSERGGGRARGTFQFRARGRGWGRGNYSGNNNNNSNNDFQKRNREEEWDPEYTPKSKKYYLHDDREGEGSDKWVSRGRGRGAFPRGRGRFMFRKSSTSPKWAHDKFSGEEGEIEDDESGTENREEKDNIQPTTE
Note: in the data inactive means no Kd found up to 30 µM.

Serine/threonine-protein kinase MRCK gamma, sequence (Q6DT37 whole entry): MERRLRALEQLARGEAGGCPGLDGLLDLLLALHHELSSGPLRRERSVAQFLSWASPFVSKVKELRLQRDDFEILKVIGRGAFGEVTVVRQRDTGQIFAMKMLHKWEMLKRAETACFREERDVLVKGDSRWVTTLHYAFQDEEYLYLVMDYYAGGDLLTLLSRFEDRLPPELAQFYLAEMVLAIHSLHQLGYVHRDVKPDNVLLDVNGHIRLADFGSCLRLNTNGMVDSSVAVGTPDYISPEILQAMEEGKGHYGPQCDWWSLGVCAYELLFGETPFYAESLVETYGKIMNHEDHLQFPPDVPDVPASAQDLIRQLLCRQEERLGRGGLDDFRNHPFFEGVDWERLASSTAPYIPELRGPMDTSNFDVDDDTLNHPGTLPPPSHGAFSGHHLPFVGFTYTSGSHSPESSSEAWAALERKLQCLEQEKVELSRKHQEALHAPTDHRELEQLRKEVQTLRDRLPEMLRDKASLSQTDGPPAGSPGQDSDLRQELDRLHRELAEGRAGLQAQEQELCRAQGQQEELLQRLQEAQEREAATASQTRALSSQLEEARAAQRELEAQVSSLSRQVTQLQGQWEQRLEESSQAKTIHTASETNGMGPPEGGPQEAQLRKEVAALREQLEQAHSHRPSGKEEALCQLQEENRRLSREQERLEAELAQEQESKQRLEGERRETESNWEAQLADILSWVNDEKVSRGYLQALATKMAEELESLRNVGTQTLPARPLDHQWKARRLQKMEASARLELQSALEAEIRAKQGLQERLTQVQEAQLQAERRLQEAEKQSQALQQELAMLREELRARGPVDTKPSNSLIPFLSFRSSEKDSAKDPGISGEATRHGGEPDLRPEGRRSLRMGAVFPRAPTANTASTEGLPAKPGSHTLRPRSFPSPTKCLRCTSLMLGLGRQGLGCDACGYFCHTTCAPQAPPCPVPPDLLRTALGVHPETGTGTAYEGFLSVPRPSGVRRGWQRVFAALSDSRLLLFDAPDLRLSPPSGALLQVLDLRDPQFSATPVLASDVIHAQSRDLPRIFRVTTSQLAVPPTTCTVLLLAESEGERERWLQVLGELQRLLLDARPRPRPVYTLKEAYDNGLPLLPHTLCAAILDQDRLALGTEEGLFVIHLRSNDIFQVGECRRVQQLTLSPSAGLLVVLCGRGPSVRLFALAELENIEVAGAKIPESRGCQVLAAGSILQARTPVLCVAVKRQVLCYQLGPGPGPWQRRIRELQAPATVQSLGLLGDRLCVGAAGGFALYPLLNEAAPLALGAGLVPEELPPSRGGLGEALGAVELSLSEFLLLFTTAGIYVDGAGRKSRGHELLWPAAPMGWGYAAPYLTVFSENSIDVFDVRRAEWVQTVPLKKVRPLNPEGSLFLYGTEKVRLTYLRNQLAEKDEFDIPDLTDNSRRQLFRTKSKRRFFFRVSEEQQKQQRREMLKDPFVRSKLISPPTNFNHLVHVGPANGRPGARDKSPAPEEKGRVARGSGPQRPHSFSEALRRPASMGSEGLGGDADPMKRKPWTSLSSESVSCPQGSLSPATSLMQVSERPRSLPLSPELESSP

Regarding `C[C@@H](Nc1cc(F)cc(F)c1)c1cc(C(=O)N(C)C)cc2c(=O)cc(N3CCOCC3)oc12` [AZD-8186], the Kd (at Ephrin type-A receptor 1; in test [1]) was > 30 µM (inactive) throughout.
For `COc1cc(OC)c(/C=C/S(=O)(=O)Cc2ccc(OC)c(NCC(=O)O)c2)c(OC)c1` [RIGOSERTIB], the Kd (on Ephrin type-A receptor 1; in test [2]; in test [1]; in test [3]) was > 30 µM (inactive) in each case.
As for `CN1N=C(N)c2cn([C@@H]3O[C@H](COP(=O)(O)O)[C@@H](O)[C@H]3O)c3ncnc1c23` [TRICIRIBINE PHOSPHATE], the Kd (on Ephrin type-A receptor 1; in test [2]; in test [1]; in test [3]) was > 30 µM (inactive) each time.
As to `Cc1ccc(S(=O)(=O)Nc2nc3ccccc3nc2Nc2ccc3nsnc3c2)cc1`, the Kd (on Ephrin type-A receptor 1; in test [1]; in test [3]) was > 30 µM (inactive) each time.
Regarding `Cc1nc(N)sc1-c1ccnc(Nc2ccc(N3CCOCC3)cc2)n1` [CYC-116], the Kd in test [3] was > 30 µM (inactive).
As to `Cc1cc(Nc2cc(N3CCN(C)CC3)nc(/C=C/c3ccccc3)n2)n[nH]1` [ENMD-2076], the Kd in test [2] and in test [3] was > 30 µM (inactive) in each case.
`Cc1ccc(NC(=O)c2ccc(CN3CC[C@H](N(C)C)C3)c(C(F)(F)F)c2)cc1Nc1nccc(-c2cncnc2)n1` [BAFETINIB]: the Kd (on Ephrin type-A receptor 1; in test [2]; in test [1]; in test [3]) was > 30 µM (inactive) in each case.
Consider `O=C(Nc1cccc(Cl)c1)Nc1ncc(CCNc2ncnc3ccsc23)s1` [SNS-314], for which the Kd (at Ephrin type-A receptor 1; in test [2]; in test [3]) was > 30 µM (inactive) in each case.
In the case of `Nc1nc(N)c2nc(-c3cccc(O)c3)c(-c3cccc(O)c3)nc2n1` [TG100-115], the Kd in test [3] is > 30 µM (inactive).
With `CNS(=O)(=O)Nc1nccc(Cc2c(C)c3ccc(Oc4ncccn4)cc3oc2=O)c1F` [AVUTOMETINIB], the Kd in test [2], in test [1] and in test [3] was > 30 µM (inactive) each time.
For `C1=C/COCc2cc(ccc2OCCN2CCCC2)Nc2nccc(n2)-c2cccc(c2)COC/1` [PACRITINIB], the Kd in test [1] was 0.715 µM (active); in test [3], > 30 µM (inactive).
On to `Cn1ncc(Cl)c1-c1cc(C(=O)N[C@H](CN)Cc2cccc(F)c2)sc1Cl` [AFURESERTIB], for which the Kd (at Ephrin type-A receptor 1; in test [2]) was > 30 µM (inactive) each time.
Consider `CCCS(=O)(=O)Nc1ccc(F)c(C(=O)c2c[nH]c3ncc(-c4ccc(Cl)cc4)cc23)c1F` [VEMURAFENIB], for which the Kd (on Ephrin type-A receptor 1; in test [2]; in test [1]; in test [3]) was > 30 µM (inactive) in each case.
`COCCNCc1ccc(-c2cc3nccc(Oc4ccc(NC(=S)NC(=O)Cc5ccc(F)cc5)cc4F)c3s2)nc1` [GLESATINIB]: the Kd (at Ephrin type-A receptor 1; in test [2]; in test [1]; in test [3]) was > 30 µM (inactive) each time.
As for `Cn1cc(-c2ccc3nnc(C(F)(F)c4ccc5ncccc5c4)n3n2)cn1` [JNJ-38877605], the Kd (on Ephrin type-A receptor 1; in test [2]; in test [1]; in test [3]) was > 30 µM (inactive) in each case.
In the case of `Cc1cc([C@@H](C)Nc2ccccc2C(=O)O)c2nc(N3CCOCC3)cc(=O)n2c1` [AZD-6482], the Kd (on Ephrin type-A receptor 1; in test [2]; in test [1]; in test [3]) was > 30 µM (inactive) each time.
For `COc1cc(CCc2cc(NC(=O)c3ccc(N4C[C@@H](C)N[C@@H](C)C4)cc3)n[nH]2)cc(OC)c1` [AZD-4547], the Kd (at Ephrin type-A receptor 1; in test [2]; in test [1]; in test [3]) was > 30 µM (inactive) each time.
On to `N[C@@H]1CCCN(c2c(/C=C3\SC(=O)NC3=O)cccc2-c2ccccc2)C1`, for which the Kd in test [2] and in test [1] was > 30 µM (inactive) in each case.
On to `C[C@@H]1CN(Cc2ccc(F)cc2)[C@@H](C)CN1C(=O)c1cc2c(C(=O)C(=O)N(C)C)cn(C)c2cc1Cl` [TALMAPIMOD], for which the Kd (on Ephrin type-A receptor 1; in test [2]; in test [1]) was > 30 µM (inactive) in each case.
Take `CCn1c(-c2nonc2N)nc2c(C#CC(C)(C)O)ncc(OC[C@H]3CCCNC3)c21` [GSK-690693]: in test [3], the Kd was > 30 µM (inactive).
Turning to `CCn1c(=O)c(-c2cc[nH]n2)cc2c(C)nc(N)nc21` [VOXTALISIB], the Kd (at Ephrin type-A receptor 1; in test [2]; in test [3]) was > 30 µM (inactive) throughout.
For the compound `Cc1cn(-c2cc(NC(=O)c3ccc(C)c(Nc4nccc(-c5cccnc5)n4)c3)cc(C(F)(F)F)c2)cn1` [NILOTINIB], the Kd in test [3] is > 30 µM (inactive).
With `CNC(=O)c1cc(Oc2ccc(NC(=O)Nc3ccc(Cl)c(C(F)(F)F)c3)c(F)c2)ccn1` [REGORAFENIB], the Kd on Ephrin type-A receptor 1 was 0.007 µM; in test [2] it was > 30 µM (inactive); in test [1], > 30 µM (inactive).
As for `Cc1cc(-c2cc(O)ccc2Cl)cc2nnc(Nc3ccc(OCCN4CCCC4)cc3)nc12`, the Kd (at Ephrin type-A receptor 1; in test [2]; in test [1]) was > 30 µM (inactive) in each case.
Take `CN(C)C(=O)c1cc2cnc(Nc3ccc(N4CCNCC4)cn3)nc2n1C1CCCC1` [RIBOCICLIB]: the Kd (at Ephrin type-A receptor 1; in test [2]; in test [1]) was > 30 µM (inactive) throughout.
For the compound `CC(C)Nc1cc(-c2c[nH]c(C(=O)N[C@H](CO)c3cccc(Cl)c3)c2)c(Cl)cn1` [ULIXERTINIB], the Kd (at Ephrin type-A receptor 1; in test [2]; in test [1]) was > 30 µM (inactive) in each case.

Usually Kd stands for the equilibrium constant for the complex coming apart.
